These results are taken from article PMC9033836, “Determination of key residues in MRGPRX2 to enhance pseudo-allergic reactions induced by fluoroquinolones” (Scientific Reports, 2022).

Experiment in all cases: intracellular calcium mobilisation (FLIPR Tetra), transiently transfected HEK293
Format in all cases: cell-based

Assay [1] addresses T1, dog MRGPRX2 (Canis lupus, UniProt A0A4Y5P885).
T1 construct: gene in pcDNA3.1(+), transiently transfected HEK293 cells (JCRB)
T1 sequence (A0A4Y5P885 1-417): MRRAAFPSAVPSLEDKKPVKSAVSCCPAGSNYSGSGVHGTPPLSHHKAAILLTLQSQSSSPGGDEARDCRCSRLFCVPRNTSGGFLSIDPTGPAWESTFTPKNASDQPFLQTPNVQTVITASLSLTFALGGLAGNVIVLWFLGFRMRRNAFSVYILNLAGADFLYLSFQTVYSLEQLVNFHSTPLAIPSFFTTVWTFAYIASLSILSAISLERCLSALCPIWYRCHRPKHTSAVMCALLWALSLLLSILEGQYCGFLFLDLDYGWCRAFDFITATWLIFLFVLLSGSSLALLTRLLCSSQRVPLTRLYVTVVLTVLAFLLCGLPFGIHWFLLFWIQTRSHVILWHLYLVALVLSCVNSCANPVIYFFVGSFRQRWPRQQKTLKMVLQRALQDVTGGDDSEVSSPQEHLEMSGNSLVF
Conditions: read-out: EC50 (μg/mL) ± SD (P value) / Dog / Wild type (converted). An excerpt:
intracellular calcium mobilisation (FLIPR Tetra), transiently transfected HEK293 on dog MRGPRX2

Assay [2] deals with T1, dog MRGPRX2. The note with it: highest concentration of fluoroquinolones 1000 µg/mL; HBSS pH 7.4, 20 mM HEPES, 0.05% BSA.
Assay [3] deals with T2, human MRGPRX2 (Homo sapiens, UniProt Q96LB1).
T2 construct: full-length gene in pcDNA3.1(+), transiently transfected HEK293 cells (JCRB)
T2 sequence (Q96LB1 1-330): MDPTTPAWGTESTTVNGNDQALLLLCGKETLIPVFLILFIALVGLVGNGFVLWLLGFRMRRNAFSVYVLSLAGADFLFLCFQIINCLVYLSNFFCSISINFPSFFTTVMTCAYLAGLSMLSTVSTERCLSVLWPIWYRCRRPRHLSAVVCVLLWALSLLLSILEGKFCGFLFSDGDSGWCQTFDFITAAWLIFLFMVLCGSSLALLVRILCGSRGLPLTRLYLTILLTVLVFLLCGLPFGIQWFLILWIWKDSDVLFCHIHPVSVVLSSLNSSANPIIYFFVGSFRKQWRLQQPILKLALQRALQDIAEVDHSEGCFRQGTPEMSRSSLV
Conditions: highest concentration of fluoroquinolones 1000 µg/mL; HBSS pH 7.4, 20 mM HEPES, 0.05% BSA.

Assay [4] deals with T3, human MRGPRX2 (Homo sapiens, UniProt Q96LB1, M109W).
T3 construct: full-length gene in pcDNA3.1(+), transiently transfected HEK293 cells (JCRB)
T3 sequence (Q96LB1 1-330 M109W): T2 sequence (Q96LB1 1-330) with M109W
Conditions: read-out: EC50 (μg/mL) ± SD (P value) / Human / M109W (converted). The source says:
(§1) intracellular calcium mobilisation (FLIPR Tetra), transiently transfected HEK293 on human MRGPRX2

Assay [5] concerns the target T4, human MRGPRX2 (Homo sapiens, UniProt Q96LB1, F78Y/M109W).
T4 construct: full-length gene in pcDNA3.1(+), transiently transfected HEK293 cells (JCRB)
T4 sequence (Q96LB1 1-330 F78Y/M109W): T2 sequence (Q96LB1 1-330) with F78Y, M109W
Conditions: read-out: EC50 (μg/mL) ± SD (P value) / Human / F78Y/M109W (converted).
Text: as §1

Assay [6] concerns the target T5, human MRGPRX2 (Homo sapiens, UniProt Q96LB1, F78Y).
T5 construct: full-length gene in pcDNA3.1(+), transiently transfected HEK293 cells (JCRB)
T5 sequence (Q96LB1 1-330 F78Y): T2 sequence (Q96LB1 1-330) with F78Y
Conditions: read-out: EC50 (μg/mL) ± SD (P value) / Human / F78Y (converted).
Text: as §1

Assay [7] addresses T2, human MRGPRX2. Conditions: read-out: EC50 (μg/mL) ± SD (P value) / Human / Wild type (converted).
Text: as §1

Positions count from the first letter of the chain named.

Consider `O=C(O)c1cn(C2CC2)c2cc(N3CCNCC3)c(F)cc2c1=O` [CPFX], for which the EC50 in assay [1] was 36.2 µM.
`C[C@H]1COc2c(C3(N)CC3)c(F)cc3c(=O)c(C(=O)O)cn1c23` [PZFX]: the “intracellular calcium mobilisation (FLIPR Tetra), transiently transfected HEK293” value in assay [2] and in assay [3] was “PZFX ... did not induce intracellular calcium mobilisation in any of the cells” each time.
As to `C[C@H]1COc2c(N3CCN(C)CC3)c(F)cc3c(=O)c(C(=O)O)cn1c23` [LVFX], the EC50 in assay [4] is 581 µM; in assay [5], 498 µM; in assay [6] it was 1380 µM; in assay [7], 1800 µM; in assay [1] it was 249 µM.
On the same counts, the results for `COc1c(N2CCNC(C)C2)c(F)cc2c(=O)c(C(=O)O)cn(C3CC3)c12` (stereo not shown) [GFLX] are 266 µM, 197 µM, 666 µM, 959 µM and 258 µM.
